Laboratory results as given in ChEMBL document CHEMBL1130395, “Cannabinol derivatives: binding to cannabinoid receptors and inhibition of adenylylcyclase” (J Med Chem, 1997).
pEC50, pKi: −log10 of the molar value. Activity calls are given as the source filed them. No cut-off for these calls is given here.

How the values were obtained:
Cannabinoid receptor 2 [1] = target: T1, Cannabinoid receptor 2 (Homo sapiens, UniProt P34972); experiment: Effective concentration for inhibition of human Cannabinoid receptor 2-mediated adenylyl cyclase using African green monkey (COS-7) cells transfected with the cDNA of human CB2 receptor; format: functional
T1 sequence (P34972 whole entry): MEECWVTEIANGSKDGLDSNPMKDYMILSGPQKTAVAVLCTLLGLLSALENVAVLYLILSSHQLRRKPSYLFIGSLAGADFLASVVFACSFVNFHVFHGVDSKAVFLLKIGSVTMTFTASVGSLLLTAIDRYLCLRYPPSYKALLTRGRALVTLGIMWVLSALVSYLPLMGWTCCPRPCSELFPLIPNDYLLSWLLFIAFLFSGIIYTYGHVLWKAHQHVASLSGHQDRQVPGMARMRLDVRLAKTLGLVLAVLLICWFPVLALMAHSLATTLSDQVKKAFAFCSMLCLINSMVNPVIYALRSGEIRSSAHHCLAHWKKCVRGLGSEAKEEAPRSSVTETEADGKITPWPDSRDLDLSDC

Cannabinoid receptor 1 [2] = target: T2, Cannabinoid receptor 1 (Rattus norvegicus, UniProt P20272); experiment: Effective concentration for inhibition of Cannabinoid receptor 1-mediated adenylyl cyclase activity using African green monkey (COS-7) cells transfected with the cDNA of rat CB1 receptor; format: functional
T2 sequence (P20272 whole entry): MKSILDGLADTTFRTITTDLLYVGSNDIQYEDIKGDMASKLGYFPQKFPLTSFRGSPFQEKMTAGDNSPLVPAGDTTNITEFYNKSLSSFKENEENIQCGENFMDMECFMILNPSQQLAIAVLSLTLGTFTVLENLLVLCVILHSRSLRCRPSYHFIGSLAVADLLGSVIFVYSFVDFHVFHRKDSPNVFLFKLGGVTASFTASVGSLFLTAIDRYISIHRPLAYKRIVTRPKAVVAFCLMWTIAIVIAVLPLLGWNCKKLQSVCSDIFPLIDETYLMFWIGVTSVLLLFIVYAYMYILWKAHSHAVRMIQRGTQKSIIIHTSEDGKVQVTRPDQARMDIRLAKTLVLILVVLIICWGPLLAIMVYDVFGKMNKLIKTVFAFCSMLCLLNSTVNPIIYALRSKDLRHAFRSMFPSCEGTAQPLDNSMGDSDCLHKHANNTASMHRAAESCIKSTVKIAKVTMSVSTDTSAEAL

Cannabinoid receptor 1 [3] = target: T2, Cannabinoid receptor 1; experiment: Binding affinity for Cannabinoid receptor 1 using African green monkey (COS-7) cells transfected with the cDNA of […].
Cannabinoid receptor 2 [4] = target: T1, Cannabinoid receptor 2; experiment: Binding affinity to Cannabinoid receptor 2 using African green monkey (COS-7) cells Chinese hamster ovary(CHO) cells transfected with the cDNA of human CB2; format: cell-based
Cannabinoid receptor 1 [5] = target: T2, Cannabinoid receptor 1; experiment: Binding to Cannabinoid receptor 1 using African green monkey (COS-7) cells transfected with the cDNA of rat CB1.; format: cell-based
Cannabinoid receptor 1 [6] = target: T2, Cannabinoid receptor 1; experiment: Binding affinity of compound towards Cannabinoid receptor 1 in african green monkey COS-7 cells transfected with cDNA of rat CB1 receptor; format: cell-based
Cannabinoid receptor 1 [7] = target: T2, Cannabinoid receptor 1; experiment: Binding affinity of compound towards Cannabinoid receptor 1 in rat brain synaptosomal membrane preparations; format: cell membranes
Cannabinoid receptor 2 [8] = target: T1, Cannabinoid receptor 2; experiment: Binding affinity of compound towards Cannabinoid receptor 2 in african green monkey COS-7 cells transfected with cDNA of human CB2 receptor; format: cell-based
Cannabinoid receptor 2 [9] = target: T1, Cannabinoid receptor 2; experiment: Inhibitory activity of 1 uM against human Cannabinoid receptor 2-mediated adenylyl cyclase using African green monkey (COS-7) cells transfected with the cDNA of human CB2 receptor; format: functional, cell-based
Cannabinoid receptor 2 [10] = target: T1, Cannabinoid receptor 2; experiment: Inhibitory affect of 1 uM of the substance against African green monkey (COS-7) cells Chinese hamster ovary(CHO) cells transfected with the cDNA of human Cannabinoid receptor 2; format: cell-based
[11] = target: Cannabinoid receptor 1 (Rattus norvegicus) (UniProt P20272); experiment: Inhibitory affect of 1 uM of the substance against African green monkey (COS-7) cells transfected with the cDNA of rat Cannabinoid receptor 1; format: cell-based
Chain of Cannabinoid receptor 1 (Rattus norvegicus) (P20272 whole entry): as above

[12] = target: Cannabinoid receptor 1 (Rattus norvegicus) (UniProt P20272); experiment: Inhibitory affect of 1 uM of the substance against Cannabinoid receptor 1-mediated adenylyl cyclase using African green monkey (COS-7) cells transfected with the cDNA of rat CB1 receptor; format: functional, cell-based
Cannabinoid receptor 2 [13] = target: T1, Cannabinoid receptor 2; experiment: Inhibitory affect of 1 uM against African green monkey (COS-7) cells Chinese hamster ovary(CHO) cells transfected with the cDNA of human Cannabinoid receptor 2; format: cell-based
[14] = target: Cannabinoid receptor 1 (Rattus norvegicus) (UniProt P20272); experiment: Inhibitory affect of 1 uM againstAfrican green monkey (COS-7) cells transfected with the cDNA of rat Cannabinoid receptor 1; format: cell-based
Cannabinoid receptor 2 [15] = target: T1, Cannabinoid receptor 2; experiment: Inhibitory effect of 1 uM of the substance against African green monkey (COS-7) cells Chinese hamster ovary(CHO) cells transfected with the cDNA of human Cannabinoid receptor 2; format: cell-based
[16] = target: Cannabinoid receptor 1 (Rattus norvegicus) (UniProt P20272); experiment: Inhibitory affect of 1 uM 0f the substance against cDNA of rat Cannabinoid receptor 1
[17] = target: Cannabinoid receptor 1 (Rattus norvegicus) (UniProt P20272); experiment: Inhibitory affect of 1 uM of the substance against Cannabinoid receptor 1-mediated adenylyl cyclase using African green monkey (COS-7) cells transfected with the cDNA of rat CB1 receptor; No inhibition; format: functional, cell-based
Cannabinoid receptor 2 [18] = target: T1, Cannabinoid receptor 2; experiment: Inhibitory affect of 1 uM of the substance against human Cannabinoid receptor 2-mediated adenylyl cyclase using African green monkey (COS-7) cells transfected with the cDNA of human CB2 receptor; No inhibition; format: functional, cell-based

SMILES | pEC50 (Cannabinoid receptor 2 [1]) | pEC50 (Cannabinoid receptor 1 [2]) | pKi (Cannabinoid receptor 1 [3]) | pKi (Cannabinoid receptor 2 [4]) | pKi (Cannabinoid receptor 1 [5]) | inhibition (Cannabinoid receptor 2 [9]) [%] | also measured
CCCCCCC(C)(C)c1cc(O)c2c(c1)OC(C)(C)c1ccc(C(=O)O)cc1-2 | 8.27 | 8.62 | 8.21 | 8.32 | 8.21 |  | 
CCCCCc1cc(O)c2c(c1)OC(C)(C)c1ccc(C)cc1-2 [CANNABINOL] | 6.58 | 6.92 |  |  |  |  | pKi (Cannabinoid receptor 1 [6]): 6.68; pKi (Cannabinoid receptor 1 [7]): 6.41; pKi (Cannabinoid receptor 2 [8]): 6.90
CCCCCCC(C)(C)c1cc(O)c2c(c1)OC(C)(C)[C@@H]1CC=C(C(=O)O)CC21 (some centres undefined) | 6.93 | 6.03 | 6.32 | 6.77 | 7.49 |  | 
CCCCCCC(C)(C)c1cc(O)c2c(c1)OC(C)(C)c1ccc(C)cc1-2 | 9.10 | 9.74 | 8.48 | 8.82 | 8.70 |  | 
CCCCCc1cc(O)c2c(c1)OC(C)(C)c1ccc(C(=O)O)cc1-2 |  |  | 6.22 |  |  | 6 | inhibition (Cannabinoid receptor 2 [10]): 23%; inhibition [11]: < 2%; inhibition [12]: 10%
CCCCCc1cc(OC(C)=O)c2c(c1)OC(C)(C)c1ccc(C(=O)O)cc1-2 |  |  | < 5.00 |  |  | 2 | inhibition (Cannabinoid receptor 2 [13]): 19%; inhibition [14]: 35%; inhibition [12]: 3%
CCCCCCC(C)(C)c1cc(O)c2c(c1)OC(C)(C)[C@@H]1CCC(C)=CC21 (some centres undefined) | 9.00 | 9.24 | 8.59 | 9.70 | 9.62 |  | 
CCCCCCC(C)(C)c1cc(O)c2c(c1)OC(C)(C)[C@@H]1CC=C(CO)CC21 (some centres undefined) |  | 10.46 | 9.72 |  | 10.00 |  | 
CCCCCCC(C)(C)c1cc(OC(C)=O)c2c(c1)OC(C)(C)[C@@H]1CC=C(C(=O)O)CC21 (some centres undefined) |  |  | < 5.00 |  |  | 27 | inhibition (Cannabinoid receptor 2 [15]): 9%; inhibition [16]: 11%; inhibition [17]: inactive
CCCCCc1cc(O)c2c(c1)OC(C)(C)[C@@H]1CC=C(CO)CC21 (some centres undefined) |  | 7.40 | 7.48 | 8.13 | 7.59 | 19 | 
CCCCCc1cc(O)c2c(c1)OC(C)(C)[C@@H]1CCC(C)=C[C@@H]21 |  |  |  |  |  | 21 | 
CCCCCc1cc(O)c2c(c1)OC(C)(C)c1ccc(CO)cc1-2 |  | 7.24 | 6.72 | 7.58 | 7.42 | 20 | 
CCCCCCC(C)(C)c1cc(O)c2c(c1)oc(=O)c1ccc(C)cc12 | 8.34 | 8.02 | 7.14 | 7.76 | 7.49 |  | 
CCCCCCC(C)(C)c1cc(O)c2c(c1)OC(C)(C)c1ccc(CO)cc1-2 | 9.68 | 10.25 | 8.74 | 9.70 | 10.00 |  | 
CCCCCc1cc(O)c2c(c1)oc(=O)c1ccc(C)cc12 |  |  | < 5.00 |  |  |  | inhibition (Cannabinoid receptor 2 [10]): 14%; inhibition (Cannabinoid receptor 2 [18]): inactive; inhibition [11]: 14%; inhibition [12]: 7%
CCCCCCC(C)(C)c1cc(OC(C)=O)c2c(c1)OC(C)(C)c1ccc(C(=O)O)cc1-2 | 7.41 | 7.88 | 6.25 | 7.76 | 7.30 |  | 
